Measurements from patent publication US4764617A, “Quinaldinamide derivatives” (Nippon Chemiphar Co., Ltd., priority 1986, dated 1988).
Structures can show the parent of a compound that is named as a salt.

Assays:
[1] = tested on: anemic decerebrated rigidity; experiment: Effect on anemic decerebrated rigidity (rigidity relieving effect, EMG of forelimb M. triceps brachii); assay type: in vivo, rat (Wister male rats); conditions: rat; for inhibition in vivo at 3 mg/kg: iv, 10 min, 3 mg/kg through the femoral vein, 10 minutes after administration, * fumarate, ** oxalate, read-out: Relieving Rate (suppression rate of EMG)
Method: The experiment was performed using specimen of anemic decerebrated rigidity produced in rats according to the method of Fukuda, H., Ito, T., Hashimoto, S., and Kudo, Y.; Japan, J., Pharmacol., 24, 810 (1974). Wister male rats (body weight: 270 to 350 g) were held on their backs and incised at their cervices under etherization. After the trachea and common carotid arteries were exposed, the trachea was cannulated and the bilateral common carotid arteries and esophagus were then double-[…] cut. Subsequently, its occipital bone was exposed through which a circular hole was bored to double-ligate the centrally extending basilar artery. As each rat started coming out of anesthetization, its front limbs became rigid. Measurement was conducted by recording electromyographic (EMG) response from the muscle of the forelimb (M. triceps brachii) of the rat in the rigid state. The EMG pulses were converted to accumulated values every 10 seconds and recorded as a histogram on a recorder. The effect of each test compound on the rigidity was evaluated in terms of the suppression rate. This rate was calculated first by determining the area (see FIG. 1) of a decreased EMG pulse part on the histrograpm upon passage of 10 minutes after administration of a physiological saline solution of each test compound (3 mg/kg) through the femoral vein and then in accordance with the following equation: Suppression rate (%)=(a/A)×100 wherein a means an EMG pulse area decreased as a result of the administration of the test compound; and A means an EMG pulse area observed when no test compound was administered (control).

[2] = Acute toxicity (LD50, up-and-down method); conditions: in vivo; iv, tail vein, ddN male mouse; * fumarate, ** oxalate
Method: LD50 was determined by a known up-and-down method using ddN male mouse. The test compound was dissolved in a physiological saline solution, and the resulting solution was administered into the mouse through the tail vein.

[3] = tested on: glutamic acid at neuromuscular junctions of crayfish (opener muscles of the first walking legs); experiment: Blocking effects on glutamic acid at neuromuscular junctions of crayfish (suppression of L-glutamic acid-induced depolarization); conditions: test compound 2×10^-4 M, 5-minute pretreatment; L-glutamic acid 10^-4 M; 200 µM
Method: The method of Ishida et al., [(J. Physiol., 298, 301-319 (1980)] and that of Shinozaki et al. [Comp. Biochem. Physiol., 70c, 49-58 (1981)] were followed. The opener muscles of the first walking legs of crayfish were used as experimental materials. The neuromuscular sample was held in a bath in which a physiologicl solution [NaCl (195 mM), CaCl2 (18 mM, KCl (5.4 mM), tris-maleate buffer (pH 7.5, 10 mM), and glucose (11 mM)] for use with the cray fish was perfused at room temperature and at a constant flow rate. A glass micro-electrode filled with a 3M-KCl solution was inserted in a central part of the muscle fiber to intracellularly record the changes in the potential of the muscular cell membrane.
The blocking effect of each test compound on glutamic acid was evaluated in terms of the suppression rate to depolarization which was induced by bath-applying L-glutamic acid (10^-4 M) in a 5-minute pretreatment with a solution of the test compound (2×10^-4 M).

| Structure (SMILES) | inhibition in vivo at 3 mg/kg [1] [%] | LD50 [2] [mg/kg] | Glutamic Acid-Blocking Rate (suppression rate to depolarization) [3] [%] | rigidity relieving effect (in words) ([1]; in vivo) |
| --- | --- | --- | --- | --- |
| Cc1ccccc1C(CCN1CCCCC1)NC(=O)c1ccc2ccccc2n1 (centres unmarked) [Compound 7, N-[1-(2-methylphenyl)-3-piperidinopropyl]quinaldinamide] | 11.2 | 23.5 |  |  |
| O=C(NC(CCN1CCCC1)c1ccccc1)c1ccc2ccccc2n1 (centres unmarked) [Compound 4, N-(1-phenyl-3-pyrrolidinopropyl)quinaldinamide] | 19.6 | 17.2 |  |  |
| Cc1ccc(C(=O)C(C)CN2CCCCC2)cc1 (centres unmarked) [Control Compound 2, 2,4'-dimethyl-3-piperidinopropiophenone hydrochloride, reference compound] | 4.8 |  |  |  |
| CCN(CC)CCC(NC(=O)c1ccc2ccccc2n1)c1ccccc1 (centres unmarked) [Compound 2, N-(3-diethylamino-1-phenylpropyl)quinaldinamide] | 24.6 | 18.9 |  |  |
| CCN(CC)CCNC(=O)c1ccc2ccccc2n1 [Control Compound 1, N-(2-diethylaminoethyl)quiinaldinamide fumarate, reference compound] | 1.2 |  | 30 |  |
| Cc1cccc(C(CCN2CCCCC2)NC(=O)c2ccc3ccccc3n2)c1 (centres unmarked) [Compound 8, N-[1-(3-methylphenyl)-3-piperidinopropyl]quinaldinamide] | 11.7 | 25.4 |  |  |
| O=C(NC(CCN1CCCCC1)c1ccccc1)c1ccc2ccccc2n1 (centres unmarked) [Compound 5, N-(1-phenyl-3-piperidinopropyl)quinaldinamide] | 18.8 | 24.8 | 66 |  |
| CCN(CC)CCNC(=O)c1ccc2ccccc2n1 [N-(2-diethylaminoethyl)quinaldinamide, reference compound] |  |  |  | very weak rigidity relieving effect |
| O=C(NC(CCN1CCCCCC1)c1ccccc1)c1ccc2ccccc2n1 (centres unmarked) [Compound 6, N-[3-(perhydroazepin-1-yl)-1-phenylpropyl]quinaldinamide] | 12.2 | 15.2 |  |  |
